Laboratory results taken from PubChem BioAssay (NCI).
Where “and” joins values, the source holds several entries; their conditions need not be identical. Equal entries are not always repeated.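 A five-concentration, 48-hour dose response in 96-well plates underlies each endpoint, interpolated linearly between surrounding concentrations. At the GI50, growth is halved. TGI marks complete inhibition of growth.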

What was measured:
Experiment in all cases: NCI-60 cell line screen, 48 h
NCI-H23 lung = test system: NCI-H23 lung
NCI-H460 lung = test system: NCI-H460 lung
A498 renal = test system: A498 renal
786-0 renal = test system: 786-0 renal
IGROV1 ovarian = test system: IGROV1 ovarian
HT29 colon = test system: HT29 colon
SF-295 CNS = test system: SF-295 CNS
EKVX NSCLC = test system: EKVX NSCLC
M14 melanoma = test system: M14 melanoma
SK-MEL-2 melanoma = test system: SK-MEL-2 melanoma

## Cc1ccc(/C=N\NC(=O)c2[nH]c3ccc(F)cc3c2-c2ccccc2)cc1
NCI-H23 lung
  GI50: 0.0374 µM
  TGI: > 43.8 µM
NCI-H460 lung
  GI50: 0.0345 µM
  TGI: > 37.9 µM
A498 renal
  GI50: 0.0387 µM
  TGI: 24.5 µM
786-0 renal
  GI50: 0.0387 µM
  TGI: 23.2 µM
IGROV1 ovarian
  GI50: 0.0336 µM
  TGI: 10.7 µM
HT29 colon
  GI50: 0.0291 µM
  TGI: 11.6 µM
SF-295 CNS
  GI50: 0.0266 µM
  TGI: 1.2 µM
EKVX NSCLC
  GI50: 0.0691 µM
  TGI: > 100 µM
M14 melanoma
  GI50: 0.0275 µM
SK-MEL-2 melanoma
  GI50: 0.0488 µM
  TGI: 24.5 µM

## CC1(O)C=CC(=O)C=C1
NCI-H23 lung
  TGI: 93.8 µM
NCI-H460 lung
  TGI: 44.9 µM
A498 renal
  TGI: > 78.6 µM
786-0 renal
  TGI: 49.6 µM
IGROV1 ovarian
  TGI: 70.2 µM
HT29 colon
  TGI: > 100 µM
SF-295 CNS
  TGI: > 100 µM
EKVX NSCLC
  TGI: > 100 µM
M14 melanoma
  TGI: 41.6 µM
SK-MEL-2 melanoma
  TGI: 56 µM

## Cc1ccc2c(C3Cc4ccccc4N3C(=O)/C=C\C(=O)O)c(C)[nH]c2c1 (centres undefined)
NCI-H23 lung
  TGI: > 100 µM
NCI-H460 lung
  TGI: > 100 µM
A498 renal
  TGI: > 100 µM
786-0 renal
  TGI: > 100 µM
IGROV1 ovarian
  TGI: > 100 µM
HT29 colon
  TGI: > 100 µM
SF-295 CNS
  TGI: > 100 µM
EKVX NSCLC
  TGI: > 100 µM
M14 melanoma
  TGI: > 100 µM
SK-MEL-2 melanoma
  TGI: 36 µM

## O=C(Nc1ccc(OCc2nnc(-c3ccc(Cl)cc3)o2)c(F)c1)Nc1ccc(Cl)c(C(F)(F)F)c1
NCI-H23 lung
  GI50: 2.36 µM
  TGI: 7.38 µM
NCI-H460 lung
  GI50: 1.85 µM
  TGI: 4.86 µM
A498 renal
  GI50: 1.18 µM
  TGI: 7.43 µM
786-0 renal
  GI50: 2.05 µM
  TGI: 5.1 µM
IGROV1 ovarian
  GI50: 2.9 µM
  TGI: 10.5 µM
HT29 colon
  GI50: 2.29 µM
  TGI: 5.69 µM
SF-295 CNS
  GI50: 2.26 µM
  TGI: 6.99 µM
EKVX NSCLC
  GI50: 2.64 µM
  TGI: 10.4 µM
M14 melanoma
  GI50: 2.23 µM
  TGI: 11.7 µM
SK-MEL-2 melanoma
  GI50: 3.17 µM
  TGI: 9.48 µM

## C=CC(=O)Nc1cccc(Oc2nc(Nc3ccc(N4CCN(C)CC4)cc3)nc3ccsc23)c1
NCI-H23 lung
  GI50: 4.27 µM and 9.48 µM
  TGI: > 10 µM and 36.4 µM
NCI-H460 lung
  GI50: 3.26 µM and 3.19 µM
  TGI: > 10 µM and 12.6 µM
A498 renal
  GI50: 3.51 µM and 0.862 µM
  TGI: > 10 µM and 9.65 µM
786-0 renal
  GI50: 1.3 µM and 2.07 µM
  TGI: 3.25 µM and 4.62 µM
IGROV1 ovarian
  GI50: 1.42 µM and 1.75 µM
  TGI: 3.05 µM and 4.58 µM
HT29 colon
  GI50: 1.91 µM and 2.72 µM
  TGI: 4.05 µM and 5.81 µM
SF-295 CNS
  GI50: 7.68 µM
  TGI: > 10 µM and 21.3 µM
EKVX NSCLC
  GI50: 1.55 µM and 2.39 µM
  TGI: > 10 µM and 16.7 µM
M14 melanoma
  GI50: 1.87 µM and 2.01 µM
  TGI: 3.75 µM and 3.8 µM
SK-MEL-2 melanoma
  GI50: 2.85 µM and 2.49 µM
  TGI: 8.48 µM and 5 µM

## O=C1NC(=O)C(N2C(=O)c3ccccc3C2=O)CC1O (centres undefined)
NCI-H23 lung
  GI50: > 100 µM
  TGI: > 100 µM
NCI-H460 lung
  GI50: > 100 µM
  TGI: > 100 µM
A498 renal
  GI50: > 100 µM
  TGI: > 100 µM
786-0 renal
  GI50: > 100 µM
  TGI: > 100 µM
IGROV1 ovarian
  GI50: > 100 µM
  TGI: > 100 µM
HT29 colon
  GI50: > 100 µM
  TGI: > 100 µM
SF-295 CNS
  GI50: > 100 µM
  TGI: > 100 µM
EKVX NSCLC
  GI50: > 100 µM
  TGI: > 100 µM
M14 melanoma
  GI50: > 100 µM
  TGI: > 100 µM
SK-MEL-2 melanoma
  GI50: > 100 µM
  TGI: > 100 µM

## O=C(O)CN1CCN(CC(=O)O)CC(=O)[O][Hg][O]C(=O)C1
NCI-H23 lung
  GI50: 21.2 µM
  TGI: 47.2 µM
NCI-H460 lung
  GI50: 19.8 µM
  TGI: > 54.2 µM
A498 renal
  GI50: > 100 µM
  TGI: > 100 µM
786-0 renal
  GI50: 17.1 µM
  TGI: 32.2 µM
IGROV1 ovarian
  GI50: 7.29 µM
  TGI: 28.4 µM
HT29 colon
  GI50: 16 µM
  TGI: 34.1 µM
SF-295 CNS
  GI50: > 100 µM
  TGI: > 100 µM
EKVX NSCLC
  GI50: 21 µM
  TGI: 41.5 µM
M14 melanoma
  GI50: 16.4 µM
  TGI: 31 µM
SK-MEL-2 melanoma
  GI50: 15.5 µM
  TGI: 29.6 µM

## O=C(/C=C\c1cccc([N+](=O)[O-])c1)/C=C/c1cccc([N+](=O)[O-])c1
NCI-H23 lung
  GI50: 4.43 µM
  TGI: > 100 µM
NCI-H460 lung
  GI50: 6.61 µM
  TGI: > 100 µM
A498 renal
  GI50: > 100 µM
  TGI: > 100 µM
786-0 renal
  GI50: 5.05 µM
  TGI: 22.1 µM
IGROV1 ovarian
  GI50: 2.44 µM
  TGI: 6.3 µM
HT29 colon
  GI50: 1.4 µM
  TGI: 3.32 µM
SF-295 CNS
  GI50: 2.37 µM
  TGI: 7.77 µM
EKVX NSCLC
  GI50: > 100 µM
  TGI: > 100 µM
M14 melanoma
  GI50: 2.49 µM
  TGI: 7.33 µM
SK-MEL-2 melanoma
  GI50: 19.5 µM
  TGI: 49.4 µM

## CCCP1(=O)C=C(C)C(=C(Cl)Cl)C(C)=C1 (centres undefined)
NCI-H23 lung
  TGI: 85.5 µM
NCI-H460 lung
  TGI: > 100 µM
A498 renal
  TGI: > 100 µM
786-0 renal
  TGI: > 100 µM
IGROV1 ovarian
  TGI: > 100 µM
HT29 colon
  TGI: > 100 µM
SF-295 CNS
  TGI: > 100 µM
EKVX NSCLC
  TGI: > 100 µM
M14 melanoma
  TGI: > 100 µM
SK-MEL-2 melanoma
  TGI: 41 µM

## O=C1c2c(c3c4ccccc4[nH]c3c3ccc4ccccc4c23)C(=O)N1CCN1CCNCC1
NCI-H23 lung
  GI50: 1.84 µM
  TGI: 3.7 µM
NCI-H460 lung
  GI50: 1.1 µM
  TGI: 2.6 µM
A498 renal
  GI50: 4.19 µM
  TGI: 19.6 µM
786-0 renal
  GI50: 1.76 µM
  TGI: 3.21 µM
IGROV1 ovarian
  GI50: 1.46 µM
  TGI: 2.84 µM
HT29 colon
  GI50: 1.72 µM
  TGI: 3.27 µM
SF-295 CNS
  GI50: 1.85 µM
  TGI: 3.42 µM
EKVX NSCLC
  GI50: 1.59 µM
  TGI: 3.15 µM
M14 melanoma
  GI50: 1.67 µM
  TGI: 3.24 µM
SK-MEL-2 melanoma
  GI50: 2.03 µM
  TGI: 4.7 µM

## COc1cc2c(cc1OCCCn1c(-c3ccccn3)nc3ccccc31)N=C[C@@H]1CCCN1C2=O
NCI-H23 lung
  GI50: 1.08 µM
  TGI: 3.77 µM
NCI-H460 lung
  GI50: 1.88 µM
  TGI: 4.34 µM
A498 renal
  GI50: 3.96 µM
  TGI: 14.5 µM
786-0 renal
  GI50: 2.76 µM
  TGI: 10.9 µM
IGROV1 ovarian
  GI50: 1.96 µM
  TGI: 4.89 µM
HT29 colon
  GI50: 3.61 µM
  TGI: > 79.6 µM
SF-295 CNS
  GI50: 4.05 µM
  TGI: 49.7 µM
EKVX NSCLC
  GI50: 5 µM
  TGI: 40.2 µM
M14 melanoma
  GI50: 0.92 µM
  TGI: 2.8 µM
SK-MEL-2 melanoma
  GI50: 1.52 µM
  TGI: 3.94 µM
